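Tested at 5 concentrations; 48 h exposure; 96-well plates; endpoints linearly interpolated, else capped at highest concentration. At the TGI there is no net growth.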
How the values were obtained:
Assay in all cases: NCI anticancer screen, dose series, 48 h
[1] = tested on: 786-0 renal
[2] = tested on: A498 renal
[3] = tested on: A549 NSCLC
[4] = tested on: ACHN renal
[5] = tested on: BT-549 breast
[6] = tested on: CAKI-1 renal
[7] = tested on: CCRF-CEM leukemia
[8] = tested on: COLO 205 colon
[9] = tested on: DU-145 prostate
[10] = tested on: EKVX NSCLC
[11] = tested on: HCC-2998 colon
[12] = tested on: HCT-116 colon
[13] = tested on: HCT-15 colon
[14] = tested on: HL-60(TB) leukemia
[15] = tested on: HOP-62 NSCLC
[16] = tested on: HOP-92 NSCLC
[17] = tested on: HS 578T breast
[18] = tested on: HT29 colon
[19] = tested on: IGROV1 ovarian
[20] = tested on: K-562 leukemia
[21] = tested on: KM12 colon
[22] = tested on: LOX IMVI melanoma
[23] = tested on: M14 melanoma
[24] = tested on: MALME-3M melanoma
[25] = tested on: MCF7 breast
[26] = tested on: MDA-MB-435
[27] = tested on: MDA-N
[28] = tested on: MOLT-4 leukemia
[29] = tested on: NCI-H226 lung
[30] = tested on: NCI-H23 lung
[31] = tested on: NCI-H460 lung
[32] = tested on: NCI/ADR-RES ovarian
[33] = tested on: OVCAR-3 ovarian
[34] = tested on: OVCAR-4 ovarian
[35] = tested on: OVCAR-5 ovarian
[36] = tested on: OVCAR-8 ovarian
[37] = tested on: PC-3 prostate
[38] = tested on: RPMI-8226 leukemia
[39] = tested on: RXF 393 renal
[40] = tested on: SF-268 CNS
[41] = tested on: SF-295 CNS
[42] = tested on: SF-539 CNS
[43] = tested on: SK-MEL-2 melanoma
[44] = tested on: SK-MEL-28 melanoma
[45] = tested on: SK-OV-3 ovarian
[46] = tested on: SN12C renal
[47] = tested on: SNB-19 CNS
[48] = tested on: SNB-75 CNS
[49] = tested on: SW-620 colon
[50] = tested on: T-47D breast
[51] = tested on: TK-10 renal
[52] = tested on: U251 CNS
[53] = tested on: UACC-257 melanoma
[54] = tested on: UACC-62 melanoma
[55] = tested on: UO-31 renal
[56] = tested on: MDA-MB-231 breast
[57] = tested on: NCI-H522 lung
[58] = tested on: SK-MEL-5 melanoma
[59] = tested on: SR leukemia

## O=c1[nH]nc(-c2ccccc2)c2[nH]c3c(c12)Cc1ccccc1-3
[1]
  TGI: > 100 µM
[2]
  TGI: > 100 µM
[3]
  TGI: > 100 µM
[4]
  TGI: > 100 µM
[5]
  TGI: > 100 µM
[6]
  TGI: > 100 µM
[7]
  TGI: > 100 µM
[8]
  TGI: > 34.4 µM
[9]
  TGI: > 100 µM
[10]
  TGI: > 100 µM
[11]
  TGI: > 100 µM
[12]
  TGI: > 100 µM
[13]
  TGI: > 100 µM
[14]
  TGI: 7.48 µM
[15]
  TGI: > 100 µM
[16]
  TGI: 9.68 µM
[17]
  TGI: > 100 µM
[18]
  TGI: > 70 µM
[19]
  TGI: > 100 µM
[20]
  TGI: > 100 µM
[21]
  TGI: > 83.5 µM
[22]
  TGI: > 100 µM
[23]
  TGI: > 100 µM
[24]
  TGI: > 41.6 µM
[25]
  TGI: > 100 µM
[26]
  TGI: 37.3 µM
[27]
  TGI: > 27.4 µM
[28]
  TGI: > 25.2 µM
[29]
  TGI: 70.7 µM
[30]
  TGI: > 100 µM
[31]
  TGI: > 100 µM
[32]
  TGI: > 100 µM
[33]
  TGI: > 49 µM
[34]
  TGI: > 100 µM
[35]
  TGI: > 100 µM
[36]
  TGI: > 100 µM
[37]
  TGI: > 100 µM
[38]
  TGI: > 28.4 µM
[39]
  TGI: > 42.2 µM
[40]
  TGI: > 100 µM
[41]
  TGI: > 100 µM
[42]
  TGI: > 28.3 µM
[43]
  TGI: > 100 µM
[44]
  TGI: > 100 µM
[45]
  TGI: > 100 µM
[46]
  TGI: > 100 µM
[47]
  TGI: > 100 µM
[48]
  TGI: > 43.3 µM
[49]
  TGI: > 100 µM
[50]
  TGI: > 100 µM
[51]
  TGI: > 100 µM
[52]
  TGI: > 100 µM
[53]
  TGI: > 100 µM
[54]
  TGI: 2.69 µM
[55]
  TGI: > 100 µM

## C=C(CN(CC)CC)C1(c2ccccc2)CC2(CCCC2)C(=O)O1 (stereo not drawn)
[1]
  TGI: > 100 µM
[2]
  TGI: > 100 µM
[3]
  TGI: > 100 µM
[4]
  TGI: > 100 µM
[6]
  TGI: > 100 µM
[7]
  TGI: > 100 µM
[8]
  TGI: > 100 µM
[9]
  TGI: > 100 µM
[10]
  TGI: > 100 µM
[11]
  TGI: > 100 µM
[12]
  TGI: > 100 µM
[13]
  TGI: > 100 µM
[14]
  TGI: > 100 µM
[15]
  TGI: > 100 µM
[16]
  TGI: 83.3 µM
[17]
  TGI: > 100 µM
[18]
  TGI: 77.9 µM
[19]
  TGI: > 100 µM
[20]
  TGI: > 100 µM
[21]
  TGI: > 100 µM
[22]
  TGI: > 100 µM
[23]
  TGI: > 100 µM
[24]
  TGI: > 100 µM
[25]
  TGI: > 100 µM
[56]
  TGI: > 100 µM
[26]
  TGI: > 100 µM
[27]
  TGI: > 100 µM
[28]
  TGI: > 100 µM
[29]
  TGI: > 100 µM
[30]
  TGI: 98.9 µM
[31]
  TGI: > 100 µM
[57]
  TGI: > 100 µM
[32]
  TGI: 84.4 µM
[33]
  TGI: > 100 µM
[34]
  TGI: > 100 µM
[35]
  TGI: > 100 µM
[36]
  TGI: > 100 µM
[37]
  TGI: > 100 µM
[38]
  TGI: > 100 µM
[39]
  TGI: > 100 µM
[40]
  TGI: > 100 µM
[41]
  TGI: > 100 µM
[42]
  TGI: > 100 µM
[43]
  TGI: > 100 µM
[44]
  TGI: > 100 µM
[58]
  TGI: > 100 µM
[45]
  TGI: > 100 µM
[46]
  TGI: > 100 µM
[47]
  TGI: > 100 µM
[48]
  TGI: 92.6 µM
[59]
  TGI: > 100 µM
[49]
  TGI: > 100 µM
[50]
  TGI: > 100 µM
[51]
  TGI: > 100 µM
[52]
  TGI: > 100 µM
[53]
  TGI: 98.9 µM
[54]
  TGI: > 100 µM
[55]
  TGI: > 100 µM

Source: PubChem BioAssay (NCI)
